Key:
Conditions in all cases: incubation time: 72 h
[1] = test system: BT-474; experiment: normalised response (% of control), CellTox Green; higher = less cell death (100 = DMSO, 0 = benzethonium chloride kill control)
In short: (§1)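 Breast cancer cell lines, seeded at 20 µl suspension per well, were incubated for 72 h in 384-well plates containing compound at 5 concentrations. These concentrations rose in 10-fold steps over a 10,000-fold range set for each compound. CellTox Green fluorescence (485/520 nm) was read, then CellTiter-Glo luminescence after 10 min at room temperature, and each plate was normalised to 0.1 % DMSO (100) and a positive kill control (0). Values are normalised signals, each at one concentration.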

[2] = test system: BT-549; experiment: as above
In short: as §1

[3] = test system: CAL-120; experiment: as above
In short: as §1

[4] = test system: CAL-148; experiment: as above
In short: as §1

[5] = test system: CAL-51; experiment: as above
In short: as §1

[6] = test system: CAL-85-1; experiment: as above
In short: as §1

[7] = test system: DU-4475; experiment: as above
In short: as §1

[8] = test system: HCC1143; experiment: as above
In short: as §1

[9] = test system: HCC1599; experiment: as above
In short: as §1

[10] = test system: HCC1937; experiment: as above
In short: as §1

[11] = test system: Hs578T; experiment: as above
In short: as §1

[12] = test system: MCF-10A; experiment: as above
In short: as §1

[13] = test system: MDA-MB-436; experiment: as above
In short: as §1

[14] = test system: MDA-MB-453; experiment: as above
In short: as §1

[15] = test system: MDA-MB-468; experiment: as above
In short: as §1

[16] = test system: MFM-223; experiment: as above
In short: as §1

[17] = test system: BT-474; experiment: normalised response (% of control), CellTiter-Glo; higher = more viable cells (100 = DMSO, 0 = benzethonium chloride kill control)
Description: (§2)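 DSRT, 72 h incubation, CellTox Green / CellTiter-Glo readout. Signal is normalised to DMSO and benzethonium chloride controls. Value is the normalised response at dose 3.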

[18] = test system: BT-549; experiment: as above
Description: as §2

[19] = test system: CAL-120; experiment: as above
Description: as §2

[20] = test system: CAL-148; experiment: as above
Description: as §2

[21] = test system: CAL-51; experiment: as above
Description: as §2

[22] = test system: CAL-85-1; experiment: as above
Description: as §2

[23] = test system: DU-4475; experiment: as above
Description: as §2

[24] = test system: HCC1143; experiment: as above
Description: as §2

[25] = test system: HCC1599; experiment: as above
Description: as §2

[26] = test system: HCC1937; experiment: as above
Description: as §2

[27] = test system: HDQ-P1; experiment: as above
Description: as §2

[28] = test system: Hs578T; experiment: as above
Description: as §2

[29] = test system: MCF-10A; experiment: as above
Description: as §2

[30] = test system: MDA-MB-231; experiment: as above
Description: as §2

[31] = test system: MDA-MB-436; experiment: as above
Description: as §2

[32] = test system: MDA-MB-453; experiment: as above
Description: as §2

[33] = test system: MDA-MB-468; experiment: as above
Description: as §2

[34] = test system: MFM-223; experiment: as above
Description: as §2

[35] = test system: SK-BR-3; experiment: as above
Description: as §2

[36] = test system: HDQ-P1; experiment: normalised response (% of control), CellTox Green; higher = less cell death (100 = DMSO, 0 = benzethonium chloride kill control)
In short: as §1

[37] = test system: MDA-MB-231; experiment: as above
In short: as §1

Compound	normalised response [1]	normalised response [2]	normalised response [3]	normalised response [4]	normalised response [5]	normalised response [6]	normalised response [7]	normalised response [8]	normalised response [9]	normalised response [10]	normalised response [11]	normalised response [12]	normalised response [13]	normalised response [14]	normalised response [15]	normalised response [16]	normalised response [17]	normalised response [18]	normalised response [19]	normalised response [20]	normalised response [21]	normalised response [22]	normalised response [23]	normalised response [24]	normalised response [25]	normalised response [26]	normalised response [27]	normalised response [28]	normalised response [29]	normalised response [30]	normalised response [31]	normalised response [32]	normalised response [33]	normalised response [34]	normalised response [35]	normalised response [36]	normalised response [37]
COc1cc2nccc(Oc3ccc(NC(=O)C4(C(=O)Nc5ccc(F)cc5)CC4)cc3)c2cc1OC [Cabozantinib] (10 nM)	95.6%	107%	98.1%	76%	102%	96.5%	99.5%	104%	91.5%	102%	69.2%	85.1%	96.2%	101%	62.5%	100%	93.9%	102%	98%	110%	111%	103%	100%	99.2%	113%	94.6%	93.5%	99.3%	97.2%	99.3%	105%	100%	97.8%	99.4%	94.3%		
COc1cc([C@@H]2c3cc4c(cc3[C@@H](O[C@@H]3O[C@@H]5CO[C@@H](C)O[C@H]5[C@H](O)[C@H]3O)[C@H]3COC(=O)[C@H]23)OCO4)cc(OC)c1O [Etoposide] (100 nM)	101%	92.4%	106%	92%	112%	95.2%	98.8%	98.7%	110%	111%		75%	107%	102%	56.9%	104%	99.9%	94.6%	102%	103%	107%	102%	82.9%	100%	110%	94.9%	102%	111%	106%	120%	98.3%	113%	100%	110%	109%	92%	112%
O=P1(NCCCl)OCCCN1CCCl (configuration not stated) [Ifosfamide] (100 nM)	100%	112%	98%	90.8%	90.4%	110%	97.9%	74.1%	95.1%		56.1%	102%	102%	89.3%	194%	97.8%	97%	102%	94.3%	92%	68.5%	95.1%	95.3%	99.7%	101%	98.2%	98.9%	96.8%	97.9%	91.8%	94.9%	88.8%	94.8%	91.2%	89.5%	88%	87.4%
CC1(C)NC(=O)N(c2ccc([N+](=O)[O-])c(C(F)(F)F)c2)C1=O [Nilutamide] (100 nM)	101%	98.4%	102%	96.7%	109%	102%	103%	119%	108%	119%	109%			99.1%	148%	103%	105%	101%	102%	119%	109%	101%	103%	105%	118%	98.4%	102%	103%	105%	101%	102%	103%	105%	110%	109%		105%
CCCCCCCCCCCCCCCCCCOP(=O)([O-])OC1CC[N+](C)(C)CC1 [Perifosine] (25 nM)	102%	97.1%	103%	103%	93.7%	109%	104%	89.7%	97.9%	88%	105%	106%	112%	99.7%	95.6%	93.5%	101%	101%	109%	88.8%	96.8%	98.5%	96%	101%	101%	103%	108%	100%	105%	105%	104%	87%	100%	93.4%	91.3%		92.4%

— the supplement of paper PMC4862054
